The numbers were not newly measured in patent US20230398111A1, “ORAL FORMULATIONS OF NINTEDANIB AND METHOD OF MANUFACTURING THEREOF” (BDR PHARMACEUTICALS INTERNATIONAL PRIVATE LIMITED, priority 2020, published 2023), which cites them from elsewhere.

For this data set the following is noted: neutral conditions / neutral pH.

`COC(=O)c1ccc2c(c1)NC(=O)/C2=C(\Nc1ccc(N(C)C(=O)CN2CCN(C)CC2)cc1)c1ccccc1` [Nintedanib esylate, methyl-2-hydroxy-3-[N-[4-[methyl-[2-(4-methylpiperazin-1-yl)acetyl]amino]phenyl]-C-phenylcarbonimidoyl]-1H-indole-6-carboxylate ethanesulfonic acid]: the solubility result is listed as “poor solubility”.
